Laboratory results published in EP3727588B1, “ACTIVATOR PEPTIDES OF THE ENZYME ADAM 10 AND RELATED USES IN THE TREATMENT OF ALZHEIMER'S DISEASE” (UNIVERSITA' DEGLI STUDI DI MILANO, priority 2017, dated 2019).
Values joined by “and” are separate entries in the source; they are usually repeats but may differ in a detail not shown here. Equal entries are not always repeated. Peptide text beside a SMILES is read from it.

Columns and labels:
ADAM10/AP2 complex = biological target: T1, ADAM10/AP2 complex (Rattus norvegicus, UniProt P62944); assay: co-immunoprecipitation of ADAM10 with AP2 subunits in primary cultures of hippocampal neurons; format: cell-based
T1 construct: endogenous in cells; host or cells: primary hippocampal neurons of rat embryos, DIV14
T1 sequence (P18484 whole entry): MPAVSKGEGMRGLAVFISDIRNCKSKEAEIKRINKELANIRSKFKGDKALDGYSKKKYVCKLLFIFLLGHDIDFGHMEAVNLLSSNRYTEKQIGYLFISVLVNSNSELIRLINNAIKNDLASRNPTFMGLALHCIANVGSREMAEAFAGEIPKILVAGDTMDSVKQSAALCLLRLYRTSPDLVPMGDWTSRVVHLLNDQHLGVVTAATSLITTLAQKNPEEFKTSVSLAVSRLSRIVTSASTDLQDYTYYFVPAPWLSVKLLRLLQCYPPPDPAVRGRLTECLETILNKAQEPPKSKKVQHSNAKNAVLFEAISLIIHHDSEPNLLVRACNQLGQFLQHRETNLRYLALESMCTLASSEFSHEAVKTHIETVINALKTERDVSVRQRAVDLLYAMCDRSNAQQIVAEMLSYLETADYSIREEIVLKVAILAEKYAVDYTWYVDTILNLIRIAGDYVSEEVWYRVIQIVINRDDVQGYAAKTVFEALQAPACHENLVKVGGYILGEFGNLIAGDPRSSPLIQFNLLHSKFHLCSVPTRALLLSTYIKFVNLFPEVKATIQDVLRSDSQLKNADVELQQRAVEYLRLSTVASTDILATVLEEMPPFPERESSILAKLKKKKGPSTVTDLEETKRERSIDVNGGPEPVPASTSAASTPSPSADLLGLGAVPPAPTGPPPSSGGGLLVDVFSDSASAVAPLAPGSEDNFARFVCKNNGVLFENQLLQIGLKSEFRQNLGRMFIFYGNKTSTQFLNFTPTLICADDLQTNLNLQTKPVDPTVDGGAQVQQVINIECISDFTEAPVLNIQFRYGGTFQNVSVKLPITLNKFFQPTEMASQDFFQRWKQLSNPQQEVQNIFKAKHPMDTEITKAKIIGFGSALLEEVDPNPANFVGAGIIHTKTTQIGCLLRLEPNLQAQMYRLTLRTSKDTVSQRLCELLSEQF
T1 sequence (P62744 whole entry, further chain): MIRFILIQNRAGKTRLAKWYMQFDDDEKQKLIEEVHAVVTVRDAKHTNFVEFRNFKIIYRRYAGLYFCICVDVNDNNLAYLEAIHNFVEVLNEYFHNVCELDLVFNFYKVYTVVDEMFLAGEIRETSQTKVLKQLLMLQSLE
T1 sequence (P84092 whole entry, further chain): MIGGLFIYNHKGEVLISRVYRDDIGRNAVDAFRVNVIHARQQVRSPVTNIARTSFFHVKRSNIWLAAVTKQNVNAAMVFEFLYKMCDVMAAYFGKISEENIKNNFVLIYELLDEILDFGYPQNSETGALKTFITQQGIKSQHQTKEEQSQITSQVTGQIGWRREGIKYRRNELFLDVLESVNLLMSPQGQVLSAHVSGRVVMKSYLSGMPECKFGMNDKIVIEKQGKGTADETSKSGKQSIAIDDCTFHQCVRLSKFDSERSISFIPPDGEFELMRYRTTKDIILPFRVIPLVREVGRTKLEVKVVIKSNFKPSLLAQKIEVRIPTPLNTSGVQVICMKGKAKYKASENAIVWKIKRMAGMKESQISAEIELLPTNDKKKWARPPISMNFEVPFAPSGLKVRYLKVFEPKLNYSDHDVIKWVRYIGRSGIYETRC
T1 sequence (P62944 whole entry): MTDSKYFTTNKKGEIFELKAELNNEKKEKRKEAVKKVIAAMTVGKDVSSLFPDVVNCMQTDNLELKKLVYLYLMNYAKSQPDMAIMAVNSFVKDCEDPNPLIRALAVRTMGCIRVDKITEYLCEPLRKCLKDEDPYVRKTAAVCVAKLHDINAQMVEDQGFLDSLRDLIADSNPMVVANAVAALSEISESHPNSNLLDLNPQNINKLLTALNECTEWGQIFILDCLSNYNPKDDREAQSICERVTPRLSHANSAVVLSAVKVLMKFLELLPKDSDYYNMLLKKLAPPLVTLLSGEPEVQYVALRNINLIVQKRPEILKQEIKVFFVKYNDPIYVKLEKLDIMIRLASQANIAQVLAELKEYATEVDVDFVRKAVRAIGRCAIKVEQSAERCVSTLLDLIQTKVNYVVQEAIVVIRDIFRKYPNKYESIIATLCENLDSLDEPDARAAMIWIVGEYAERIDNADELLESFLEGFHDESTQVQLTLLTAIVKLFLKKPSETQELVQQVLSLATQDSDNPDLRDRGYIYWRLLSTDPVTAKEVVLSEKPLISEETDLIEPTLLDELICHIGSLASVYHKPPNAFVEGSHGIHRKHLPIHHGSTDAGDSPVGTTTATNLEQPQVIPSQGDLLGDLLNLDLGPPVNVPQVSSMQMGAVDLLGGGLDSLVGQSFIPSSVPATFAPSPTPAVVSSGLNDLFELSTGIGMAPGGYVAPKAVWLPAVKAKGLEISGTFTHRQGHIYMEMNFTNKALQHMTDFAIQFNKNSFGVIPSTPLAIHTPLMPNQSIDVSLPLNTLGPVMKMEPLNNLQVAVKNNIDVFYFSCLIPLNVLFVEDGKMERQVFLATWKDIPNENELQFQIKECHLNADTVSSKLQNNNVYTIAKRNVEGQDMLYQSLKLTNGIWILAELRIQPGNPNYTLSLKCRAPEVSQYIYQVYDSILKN
Method: The primary cultures were prepared from hippocampi of rat embryos as described in [20]. The cultures were grown in media containing Neurobasal (Life Technologies), B27 2% (Life Technologies), GlutaMAX 1% (Life Technologies) and Penicillin/Streptomycin 1% (Pen/Strep; Life Technologies), a 37 °C with 95% humidity and 5% CO2 for 14 days. The cells were treated by diluting the peptides in the complete growth medium, at a final concentration of 1 µM. The treatment was performed for 30 minutes at 37°C, then the neurons were lysed.
For the co-immunoprecipitation experiments, aliquots of 40-100 µg of lysate were incubated at 4°C in RIA 1X buffer (NaCl 200 mM, EDTA 10 mM, Na2HPO4 10 mM, Nonidet P-40, 0.5% and 0.1% SDS) in a final volume of 150 µl with 1-2 µg of antibody. The following day the protein complex A/G (Santa Cruz Biotechnology) was added, conjugated with agarose marbles, and the incubation was continued for 2 hours. After three washes with RIA buffer the samples were loaded onto SDS-PAGE and analysed through Western Blot.
The quantization of the Western Blot analyses was performed through an image analysis program (ImageLab -BioRad). The levels of proteins were expressed as optical density (OD) related to the different measurements and were normalized on respective tubulin levels.
After 30 minutes, the cells were processed and the cell lysate was used for performing the co-IP analyses.

[1] = test system: dendritic spines of the hippocampal neurons; assay: dendritic spine morphology and density in hippocampus, C57BL/6 mice; format: in vivo; conditions: 14 days' treatment
Method: (§1) C57/BL6 adult mice were treated for 14 days with daily intraperitoneal injection of saline solution or peptides at a dose of 3 nmol/g (6-10 animals per experimental group). The animals were maintained in an enclosure at 25 ± 2 °C with an alternating light/dark cycle of 12 hours and had free access to water and food in the form of pellets (standard diet).
For the dendritic spine analysis, the protocol used is the one previously described by Kim et al, and envisages the use of DilDye lipophilic tracer (Invitrogen) to allow the dendritic spines to be viewed under the confocal microscope. The analysis of the dimensions and morphology of the spines was performed with ImageJ software.
The spines were classified, based on their morphology, into three different categories: thin, stubby (without a well-defined "neck") and mushroom shaped. To evaluate the possible effect induced by PEP3 on the spine morphology, two animals for each experimental group were perfused after 14 days of treatment and the brain was post-fixed in PFA and cut with a vibratome. To view the dendritic spines the lipophilic tracer DilDye was used. From the images acquired from the confocal microscope the number, length and width of the head of the dendritic spines of the hippocampal neurons were measured.

[2] = Novel Object Recognition Test (NORT), C57BL/6 mice; format: in vivo; conditions: 14 days' treatment
Method: as §1
After 14 days of treatment the animals were subjected to the Novel Object Recognition Test (NORT). Such test is structured in three phases: habituation, familiarization and testing. In the first phase, the animal is placed in an empty arena and left free to explore the environment for 5 minutes. The day after, during the familiarization phase, the animal is placed in the same arena in the presence of two objects, identical in shape and size, for 10 minutes. Then the time spent by the animal exploring the individual object is recorded. On the third day, the animal is placed in the area in the presence of an identical object to that used in the familiarization phase and a new one. In this phase the difference in time spent by the animal exploring the familiar object and the new object is evaluated. […] In both phases of the test, the objects are positioned symmetrically and opposite inside the arena, and all the sessions are recorded with the aid of a video camera. […]

[3] = body weight and food intake during 14 days' treatment; format: in vivo; conditions: C57BL/6 mice, daily intraperitoneal 3 nmol/g
Method: as §1
For the entire duration of the treatment, on a daily basis, the weight and food intake of each animal were monitored and recorded, in order to evaluate any changes caused by the treatment. 24 hours after the last injection the mice were anaesthetized, and then the blood was taken through cardiac puncture, whereas the brain and liver of the animal were rapidly dissected to perform biochemical or immunohistological analyses.
The body weight and food intake were monitored and recorded on a daily basis.

[4] = leukogram (white blood cell count) after 14 days' treatment; format: in vivo, mice
Method: as §1
The blood, collected through cardiac puncture, was analysed with a laser counter (ADVIA 120, Siemens) using specific software for the murine species. From each sample a blood smear was prepared, stained with the May Grünwald-Giemsa method, and used for the morphological analysis of the leukocytes, the red blood cells and the platelet estimate. After the automatic counting of the cells and the preparation of the smear, all the samples were centrifuged and the plasma was transferred into separate test tubes. The analysis of the plasma samples was performed through automatic spectrophotometer (ILAB-300, Instrumentation Laboratory). All the results were compared with the values provided by the company Charles River for mice of the same strain and age.
Except for the basophils and eosinophils, the total count and white blood cell (WBC) differential is lower with respect to the range values in all the animals treated. However, we noticed that the reference range values provided by the company Charles River are particularly high with respect to other values provided for other control groups and in other scientific articles in which the same animal strain is analysed. Justification for these differences found is provided by the pre-analytical factors used by Charles River in determining the different reference ranges (such as the method used, the type of sampling used, etc.). Despite this, the analyses of the data performed both individually and by examining the mean and median values in the different groups, show some differences in the values referring to mice treated with the active peptide with respect to the control mice (Table 2).
The following Table 2 illustrates the results of the white blood cell count. The reference values are provided by Charles River for C57BL mice of 56-70 days.

[5] = primary cultures of neurons, 1µM, 30 min
[6] = primary hippocampal neurons DIV 14, 1 µM, 30 minutes
[7] = individual animal, 14 days, daily intraperitoneal 3 nmol/g

N=C(N)NCCC[C@H](NC(=O)CNC(=O)[C@@H](N)Cc1ccc(O)cc1)C(=O)N[C@@H](CCCCN)C(=O)N[C@@H](CCCCN)C(=O)N[C@@H](CCCNC(=N)N)C(=O)N[C@@H](CCCNC(=N)N)C(=O)N[C@@H](CCC(N)=O)C(=O)N[C@@H](CCCNC(=N)N)C(=O)N[C@@H](CCCNC(=N)N)C(=O)N[C@@H](CCCNC(=N)N)C(=O)NCC(=O)NCC(=O)N[C@@H](CO)C(=O)NCC(=O)N[C@@H](CCC(N)=O)C(=O)N1CCC[C@H]1C(=O)N1CCC[C@H]1C(=O)N[C@@H](CCCNC(=N)N)C(=O)N[C@@H](CCC(N)=O)C(=O)N[C@@H](CCCNC(=N)N)C(=O)N1CCC[C@H]1C(=O)N[C@@H](CCCNC(=N)N)C(=O)NCC(=O)O [PEP3] (H-YGRKKRRQRRRGGSGQPPRQRPRG-OH)
PEP/inPEP OD, ADAM10/AP2 complex, µ2 (ADAM10/AP2 complex; [5]): 22.43 ± 1.25%
PEP/inPEP OD, ADAM10/AP2 complex, α-adaptin (ADAM10/AP2 complex; [5]): 10.84 ± 5.61%
reduction in the levels of interaction between ADAM10 and the complex AP2, subunit µ2 (ADAM10/AP2 complex; [6]): 78%
reduction in the levels of interaction between ADAM10 and the complex AP2, subunit α-adaptin (ADAM10/AP2 complex; [6]): 89%
density of the dendritic spines [1]: 10.30±1.11 n. of spines/10µm
length of mushroom shaped spines [1]: 0.73±0.02
length of the spines [1]: 0.75±0.02 µm
percentage of mushroom shaped spines [1]: 28.83 ± 2.18%
percentage of stubby spines [1]: 45.25 ± 2.03%
percentage of thin spines [1]: 25.92 ± 1.68%
width of the head of spines [1]: 0.75±0.01 µm
time exploring the new object [2]: 63.52 ± 4.69%
food intake (ratio daily food intake / mean body weight) [3]: 97.09±2.18%
immune / allergic reactions inferred from leukogram ([4]; 14 days' treatment, said not biologically significant): leads to the development of specific immunity and to the possibility of developing possible allergic/hypergic reactions
Basophils ([4]; group mean): 10 µL⁻¹
Eosinophils ([4]; group mean): 90 µL⁻¹
Lymphocytes ([4]; group mean): 4460 µL⁻¹
Monocytes ([4]; group mean): 200 µL⁻¹
Neutrophils ([4]; group mean): 530 µL⁻¹
White blood cells ([4]; group mean): 5290 µL⁻¹
Basophils ([4]; group median): 0 µL⁻¹
Eosinophils ([4]; group median): (-0.08). x10^3/µL
Lymphocytes ([4]; group median): (-4.32). x10^3/µL
Monocytes ([4]; group median): (-0.23). x10^3/µL
Neutrophils ([4]; group median): (-0.54). x10^3/µL
White blood cells ([4]; group median): (-5.21). x10^3/µL
Basophils [4, 7]: 0 µL⁻¹ and 40 µL⁻¹
Eosinophils [4, 7]: 140 µL⁻¹ and 60 µL⁻¹ and 90 µL⁻¹ and 40 µL⁻¹ and 120 µL⁻¹ and 70 µL⁻¹
Lymphocytes [4, 7]: 5740 µL⁻¹ and 2650 µL⁻¹ and 3820 µL⁻¹ and 3720 µL⁻¹ and 4810 µL⁻¹ and 6010 µL⁻¹
Monocytes [4, 7]: 270 µL⁻¹ and 60 µL⁻¹ and 180 µL⁻¹ and 130 µL⁻¹ and 290 µL⁻¹ and 280 µL⁻¹
Neutrophils [4, 7]: 680 µL⁻¹ and 340 µL⁻¹ and 460 µL⁻¹ and 440 µL⁻¹ and 650 µL⁻¹ and 630 µL⁻¹
White blood cells [4, 7]: 6830 µL⁻¹ and 3120 µL⁻¹ and 4550 µL⁻¹ and 4380 µL⁻¹ and 5870 µL⁻¹ and 6990 µL⁻¹
